The test system of this experiment is HT29 cells. As to the kind of experiment: Inhibition of cell necrosis (CCK8 method), induced programmed necrosis of HT29 cells. It is filed as cell-based. To be noted: Homo sapiens, HT-29; rescue from necrosis induced by TNF-α 20 ng/mL, AT-406 1 μM, Z-VAD-FMK 20 μM; 16-20 hours; CCK-8, OD 450 nm. Here is the method: Assay Example 2. Assay Method for Compounds Inhibiting Cell Necrosis (CCK8 Method)
In this assay example 2, under the condition of inducing programmed cell necrosis, different concentrations of the test compounds were added to test the IC50 of the rescue effect of the test compounds on the programmed necrosis.
• Compounds: Dissolved in DMSO to make a 10 mM solution; • TNF-α: The initial concentration was 100 μg/mL; • Z-VAD-FMK: Dissolved in DMSO to make a 10 mM solution; • AT-406: Dissolved in DMSO to make a 10 mM solution. I. Experimental Steps • 1) Compound dilution: All test compounds were dissolved in DMSO to prepare a 10 mM stock solution, and the first concentration gradient dilution of the test compounds was completed in DMSO. The gradient dilution factor was 4 times and 9 concentration gradients were made; A 40-fold overall dilution of all compounds was completed in the cell culture medium, and the resulting compound was 10× compound, which will be added to the wells of the 96-well plate containing cells, so that the final cell culture medium was 1× the designed final concentration. The general drug design is 9 concentration gradients, of which the highest final concentration is 25000 nM, the lowest concentration after 4-fold dilution of 9 concentrations is 0.38 nM, and the final concentration of DMSO in all wells is 0.25%. The compound dilution process is shown in FIG. 3. • 2) HT 29 cells in good growth condition were selected, trypsinized, the cells was collected by centrifugation, resuspended in McCOY's 5A complete medium (containing 10% FBS) and counted, and the number of cells and survival rate were recorded. • 3) Cells were inoculated to the 60 wells in the middle of the 96-well culture plate at a density of 12000 cells/80 μL/well, surrounding wells were filled with sterile water, and incubated overnight. • 4) 10 μL of the 10× compound diluted with the medium was added to the assay wells, 10 μL of McCOY's 5A complete medium containing 2.5% DMSO was added to the inducer-free wells and the control wells, mixed and shaked, and incubated for 30 minutes. • 5) Then 10 μL of inducer mixture (TNF-α, AT-406, Z-VAD-FMK with the final concentration of 20 ng/mL, 1 μM, 20 μM) was added into the assay wells and control wells. 10 μL McCOY's 5A complete medium was added to wells without inducer. Cells were cultured in an incubator with 5% CO2, at 37° C. • 6) After culturing for 16-20 hours, 10 μL of CCK-8 reagent was added to each well, and incubated for about 2 hours; • 7) The OD value was read at 450 nm on the multi-function plate reader. • 8) Data processing: Inhibition rate of necrosis (%)=100*(X−B)/(A−B) • A: The OD values of the wells without inducer (containing cells, CCK-8, without compound and inducer); • […]: OD values of assay wells (containing cells, CCK-8, compound, inducer); • B: OD values of control wells (containing cells, CCK-8, inducer, without compound). Then the value were imported into Graphpad Prism5 software for curve fitting and the IC50 values were calculated.
For orientation: Tetrazolium assays rely on reduction of a dye to a coloured formazan, in cell work by metabolically active cells.

A value given as a limit tells only on which side of the number the result lay.

The results in this text go back to US12435060B2, “Acylamino bridged heterocyclic compound, and composition and application thereof” (BEIJING SCITECH-MQ PHARMACEUTICALS LIMITED, priority 2019, dated 2025).

For orientation: IC50 means the point on the concentration scale where inhibition reaches its midpoint. A lower IC50 goes with inhibition by little substance. For the compound `O=C(Nc1cc(-c2ccccc2)ccn1)c1nnc(Cc2ccccc2)[nH]1` [Example 1, 5-benzyl-N-(4-phenylpyridin-2-yl)-4H-1,2,4-triazole-3-carboxamide], the IC50 was 1000 to 10000 nM.

As to `COc1ccccc1-c1ccnc(NC(=O)c2nnc(Cc3ccccc3)[nH]2)c1` [Example 3, 5-benzyl-N-(4-(2-methoxyphenyl)pyridin-2-yl)-4H-1,2,4-triazole-3-carboxamide], the IC50 lay in the range of 1000 to 10000 nM.

`CCOc1ccccc1-c1ccnc(NC(=O)c2nnc(Cc3ccccc3)[nH]2)c1` [Example 4, 5-benzyl-N-(4-(2-ethoxyphenyl)pyridin-2-yl)-4H-1,2,4-triazole-3-carboxamide] registered an IC50 of 1000 to 10000 nM.

Compound `CC(C)Oc1ccccc1-c1ccnc(NC(=O)c2nnc(Cc3ccccc3)[nH]2)c1` [Example 5, 5-benzyl-N-(4-(2-isopropyloxyphenyl)pyridin-2-yl)-4H-1,2,4-triazole-3-carboxamide] came in with an IC50 greater than 10000 nM.

As to `O=C(Nc1cc(-c2ccccc2OC(F)(F)F)ccn1)c1nnc(Cc2ccccc2)[nH]1` [Example 6, 5-benzyl-N-(4-(2-(trifluoromethoxy)phenyl)pyridin-2-yl)-4H-1,2,4-triazole-3-carboxamide], the IC50 was 1000 to 10000 nM.

`O=C(Nc1cc(-c2ccccc2Cl)ccn1)c1nnc(Cc2ccccc2)[nH]1` [Example 7, 5-benzyl-N-(4-(2-chlorophenyl)pyridin-2-yl)-4H-1,2,4-triazole-3-carboxamide]: the IC50 is 100 to 1000 nM.

`O=C(Nc1cc(-c2ccccc2C2CC2)ccn1)c1nnc(Cc2ccccc2)[nH]1` [Example 8, 5-benzyl-N-(4-(2-cyclopropylphenyl)pyridin-2-yl)-4H-1,2,4-triazole-3-carboxamide]: the IC50 is 1000 to 10000 nM.

Compound `COc1ccc(-c2ccnc(NC(=O)c3nnc(Cc4ccccc4)[nH]3)c2)cc1` [Example 9, 5-benzyl-N-(4-(4-methoxyphenyl)pyridin-2-yl)-4H-1,2,4-triazole-3-carboxamide] registered an IC50 greater than 10000 nM.

`COc1ccc(-c2ccnc(NC(=O)c3nnc(Cc4ccccc4)[nH]3)c2)c(C)c1` [Example 10, 5-benzyl-N-(4-(4-methoxy-2-methylphenyl)pyridin-2-yl)-4H-1,2,4-triazole-3-carboxamide] displayed an IC50 of 1000 to 10000 nM.

Compound `Cc1cc(Cl)ccc1-c1ccnc(NC(=O)c2nnc(Cc3ccccc3)[nH]2)c1` [Example 11, 5-benzyl-N-(4-(4-chloro-2-methylphenyl)pyridin-2-yl)-4H-1,2,4-triazole-3-carboxamide] registered an IC50 of 1000 to 10000 nM.

With `Cc1cc(C#N)ccc1-c1ccnc(NC(=O)c2nnc(Cc3ccccc3)[nH]2)c1` [Example 12, 5-benzyl-N-(4-(4-cyano-2-methylphenyl)pyridin-2-yl)-4H-1,2,4-triazole-3-carboxamide], the half-maximal inhibitory concentration (IC50) is 100 to 1000 nM.

`COc1ccc(Cl)c(-c2ccnc(NC(=O)c3nnc(Cc4ccccc4)[nH]3)c2)c1` [Example 13, 5-benzyl-N-(4-(2-chloro-5-methoxyphenyl)pyridin-2-yl)-4H-1,2,4-triazole-3-carboxamide] registered an IC50 of 1000 to 10000 nM.

Compound `COc1ccc(F)cc1-c1ccnc(NC(=O)c2nnc(Cc3ccccc3)[nH]2)c1` [Example 14, 5-benzyl-N-(4-(5-fluoro-2-methoxyphenyl)pyridin-2-yl)-4H-1,2,4-triazole-3-carboxamide] returned an IC50 of 1000 to 10000 nM.

As for `COc1ccc(Cl)cc1-c1ccnc(NC(=O)c2nnc(Cc3ccccc3)[nH]2)c1` [Example 15, 5-benzyl-N-(4-(5-chloro-2-methoxyphenyl)pyridin-2-yl)-4H-1,2,4-triazole-3-carboxamide], the IC50 fell in the range of 1000 to 10000 nM.

For the compound `COc1ccc(C)cc1-c1ccnc(NC(=O)c2nnc(Cc3ccccc3)[nH]2)c1` [Example 16, 5-benzyl-N-(4-(2-methoxy-5-methylphenyl)pyridin-2-yl)-4H-1,2,4-triazole-3-carboxamide], the IC50 is 1000 to 10000 nM.

In turn, `COc1ccc(C(C)C)cc1-c1ccnc(NC(=O)c2nnc(Cc3ccccc3)[nH]2)c1` [Example 17, 5-benzyl-N-(4-(5-isopropyl-2-methoxyphenyl)pyridin-2-yl)-4H-1,2,4-triazole-3-carboxamide] displayed an IC50 greater than 10000 nM.

Compound `COc1ccc(OC)c(-c2ccnc(NC(=O)c3nnc(Cc4ccccc4)[nH]3)c2)c1` [Example 18, 5-benzyl-N-(4-(2,5-dimethoxyphenyl)pyridin-2-yl)-4H-1,2,4-triazole-3-carboxamide] showed an IC50 of 1000 to 10000 nM.

In the case of `COc1ccc(C(F)(F)F)cc1-c1ccnc(NC(=O)c2nnc(Cc3ccccc3)[nH]2)c1` [Example 19, 5-benzyl-N-(4-(2-methoxy-5-(trifluoromethyl)phenyl)pyridin-2-yl)-4H-1,2,4-triazole-3-carboxamide], the IC50 was 1000 to 10000 nM.

For `Cc1ncccc1-c1ccnc(NC(=O)c2nnc(Cc3ccccc3)[nH]2)c1` [Example 20, 5-benzyl-N-(2-methyl-[3,4′-bipyridin]-2′-yl)-4H-1,2,4-triazole-3-carboxamide], the IC50 was in the range of 100 to 1000 nM.

The compound `COc1ncccc1-c1ccnc(NC(=O)c2nnc(Cc3ccccc3)[nH]2)c1` [Example 21, 5-benzyl-N-(2-methoxy-[3,4′-bipyridin]-2′-yl)-4H-1,2,4-triazole-3-carboxamide] came in with an IC50 of 1000 to 10000 nM.

As to `CCOc1ncccc1-c1ccnc(NC(=O)c2nnc(Cc3ccccc3)[nH]2)c1` [Example 22, 5-benzyl-N-(2-ethoxy-[3,4′-bipyridin]-2′-yl)-4H-1,2,4-triazole-3-carboxamide], the IC50 was 1000 to 10000 nM.

In the case of `CC(C)Oc1ncccc1-c1ccnc(NC(=O)c2nnc(Cc3ccccc3)[nH]2)c1` [Example 23, 5-benzyl-N-(2-isopropyloxy-[3,4′-bipyridin]-2′-yl)-4H-1,2,4-triazole-3-carboxamide], the IC50 is greater than 10000 nM.

The compound `Cc1cnccc1-c1ccnc(NC(=O)c2nnc(Cc3ccccc3)[nH]2)c1` [Example 24, 5-benzyl-N-(3′-methyl-[4,4′-bipyridin]-2-yl)-4H-1,2,4-triazole-3-carboxamide] gave an IC50 of 100 to 1000 nM.

The compound `COc1cnccc1-c1ccnc(NC(=O)c2nnc(Cc3ccccc3)[nH]2)c1` [Example 25, 5-benzyl-N-(3′-methoxy-[4,4′-bipyridin]-2-yl)-4H-1,2,4-triazole-3-carboxamide] registered an IC50 of 1000 to 10000 nM.

`Cn1nccc1-c1ccnc(NC(=O)c2nnc(Cc3ccccc3)[nH]2)c1` [Example 26, 5-benzyl-N-(4-(1-methyl-1H-pyrazol-5-yl)pyridin-2-yl)-4H-1,2,4-triazole-3-carboxamide] came in with an IC50 of 100 to 1000 nM.

On to `Cc1cc(-c2ccnc(NC(=O)c3nnc(Cc4ccccc4)[nH]3)c2)n(C)n1` [Example 27, 5-benzyl-N-(4-(1,3-dimethyl-1H-pyrazol-5-yl)pyridin-2-yl)-4H-1,2,4-triazole-3-carboxamide], for which the IC50 fell in the range of 1000 to 10000 nM.

`Cn1nc(C(F)(F)F)cc1-c1ccnc(NC(=O)c2nnc(Cc3ccccc3)[nH]2)c1` [Example 28, 5-benzyl-N-(4-(1-methyl-3-(trifluoromethyl)-1H-pyrazol-5-yl)pyridin-2-yl)-4H-1,2,4-triazole-3-carboxamide] came in with an IC50 of 1000 to 10000 nM.

As to `Cc1ccccc1-c1cncc(NC(=O)c2nnc(Cc3ccccc3)[nH]2)c1` [Example 29, 5-benzyl-N-(5-(o-methylphenyl)pyridin-3-yl)-4H-1,2,4-triazole-3-carboxamide], the IC50 was greater than 10000 nM.

Regarding `O=C(Nc1cncc(-c2ccccc2Cl)c1)c1nnc(Cc2ccccc2)[nH]1` [Example 30, 5-benzyl-N-(5-(2-chlorophenyl)pyridin-3-yl)-4H-1,2,4-triazole-3-carboxamide], the IC50 is greater than 10000 nM.

`COc1ccc(Cl)c(-c2cncc(NC(=O)c3nnc(Cc4ccccc4)[nH]3)c2)c1` [Example 31, 5-benzyl-N-(5-(2-chloro-5-methoxyphenyl)pyridin-3-yl)-4H-1,2,4-triazole-3-carboxamide]: the IC50 was greater than 10000 nM.

Regarding `CC(C)n1nc(C(F)(F)F)cc1-c1ccnc(NC(=O)c2nnc(Cc3ccccc3)[nH]2)c1` [Example 32, 5-benzyl-N-(4-(1-isopropyl-3-(trifluoromethyl)-1H-pyrazol-5-yl)pyridin-2-yl)-4H-1,2,4-triazole-3-carboxamide], the IC50 was greater than 10000 nM.
